Laboratory results: US6034211A, “β-sheet nucleating peptidomimetics” (priority 1996, dated 2000)
Starred links: 1 amine or outer side, 2 acyl side, 3 side chain; linkers in the order of their positions; H or OH if unused. Non-standard residues stand in square brackets, D forms with d. Residues, ends and D or L forms follow the SMILES beside them. X1 = O=C(CCc1ccccc1-c1cccc(CCN[*:1])c1)[*:2]; Orn = NCCC[C@H](N)C(=O)O

Experiments:
[1] = Amide proton/deuterium exchange studies by NMR; type: physicochemical; conditions: for rates of amide proton/deuterium exchange of the Leu and Val residues flanking 1 relative to the remaining residues: peptide A 3.0-3.3 mM, pH 3.4-3.6, peptide D 2.5-2.9 mM, pH 4.1-5.1
Procedure: Information concerning the hydrogen-bonding network within a peptide containing residue 1A in aqueous solution was obtained from amide exchange studies of peptide A (3.0-3.3 mM, pH 3.4-3.6) and peptide D (2.5-2.9 mM, pH 4.1-5.1) where peptides A and D appear to be unstructured by far-UV CD.
Amide exchange studies at pH 3.2 were used to examine the hydrogen-bonding properties of peptide G which is expected to be partially folded on the basis of the studies discussed above.

[2] = Analytical equilibrium ultracentrifugation (solution molecular weight, quaternary structure)
[3] = Far-UV circular dichroism studies of peptide folding (random coil vs β-sheet); type: physicochemical
Procedure: Heptapeptide A has an -amino acid sequence homologous to a 4-(2-aminoethyl)-6-dibenzofuranpropionic acid-based heptapeptide studied previously, allowing comparsion of the efficacy of the biphenyl- and dibenzofuran-based amino acids as nucleators in a momologous α-aminoacid sequence. Peptide B, having a Phe in place of Leu-3, was prepared to test the feasibility of using an aromatic-aromatic interaction to stabilize the hydrophobic cluster and facilitate β-sheet folding. In peptide C, ornithine-2 was replaced with Glu to probe the effect of an addition long-range residue-residue electrostatic interaction (salt bridge) on β-sheet stability in the context of a heptapeptide.
The high charge density on peptides D and E should prevent the favorable strand-strand interactions required for sheet formation at low pH. The removal of two or more of the charges on the Lys ε-ammonium groups effected by increasing the pH is expected to facilitate intramolecular folding followed by self-assembly. A leucine was employed as one of the flanking residues in these peptides instead of valine because the increased side chain flexibility should maximize packing interactions required for hydrophobic cluster formation. […] Peptide E was identical to peptide D except that it incorporated residue 2A in place of residue 1A. […] Peptide F was prepared to probe the importance of hydrophobic cluster formation in β-sheet folding mediated by residue 1A. The flanking hydrophobic residues in peptide D were replaced with hydrophilic lysine residues in peptide F while maintaining a highly momologous amino acid composition and an amphiphilic periodicity of 2A.

CC(C)C[C@H](NC(=O)[C@H](CCCN)NC(=O)[C@@H](NC(=O)CCc1ccccc1-c1cccc(CCNC(=O)[C@H](CC(C)C)NC(=O)[C@H](CCCN)NC(=O)[C@@H](N)C(C)C)c1)C(C)C)C(N)=O [A, Val Orn Leu 1A Val Orn Leu] (H-V[Orn]L[X1]V[Orn]L-NH2)
rates of amide proton/deuterium exchange of the Leu and Val residues flanking 1 relative to the remaining residues [1]: at least an order of magnitude slower

CC(C)C[C@H](NC(=O)[C@H](CCCCN)NC(=O)[C@@H](NC(=O)[C@H](CCCCN)NC(=O)[C@@H](NC(=O)[C@@H](N)CCCCN)C(C)C)C(C)C)C(=O)NCCc1cccc(-c2ccccc2CCC(=O)N[C@H](C(=O)N[C@@H](CCCCN)C(=O)N[C@H](C(=O)N[C@@H](CCCCN)C(=O)N[C@H](C(=O)N[C@@H](CCCCN)C(N)=O)C(C)C)C(C)C)C(C)C)c1 [Peptide D, Lys Val Lys Val Lys Leu 1A Val Lys Val Lys Val Lys] (H-KVKVKL[X1]VKVKVK-NH2)
rates of amide proton/deuterium exchange of the Leu and Val residues flanking 1 relative to the remaining residues [1]: at least an order of magnitude slower

Lys Val N--Me--Leu Val Lys Leu 1A Val Lys Val N--Me--Leu Val Lys [Peptide G]
observed solution molecular weight (expected monomer 1644) ([2]; 0.11 mM, pH 6.8): 1600±80 | association state by analytical equilibrium ultracentrifugation ([2]; within the concentration and pH ranges studied): monomeric | association state by concentration dependent far-UV CD ([3]; 0.015-0.4 mM, pH 7, mean residue ellipticity at 225 nm constant): monomeric | pH dependence of far-UV CD spectra ([3]; 25° C.): little dependence on pH | structure by far-UV CD ([3]; 25° C.): both random coil and β-sheet structure | aggregation upon heating ([3]; upon heating): does not aggregate | change of structure upon heating (far-UV CD) ([3]; upon heating): increase in β-sheet structure | rates of amide proton exchange of Leu-6, Val-8, Val-4 and Val-10 relative to the remaining residues ([1]; pH 3.2): significantly slower
